Here are results for twelve compounds from patent EP0558245A1, “Heterobicyclic compounds as antagogists of alpha-1 adrenergic and SHT1A receptors” (priority 1992, dated 1993).

Where a name gives a salt, the structure may show the parent alone. Read-outs that look alike come from different tables or passages of the source.

A word on the IC50: it is the concentration at which inhibition is half-maximal.

Series [1] is described as follows: Acute toxicity in mice after intraperitoneal and oral administration. The following applies: mouse, in vivo. In a few lines:
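Female albino Swiss mice (20-30 g) dosed i.p. or orally at four log-scaled doses in 0.5% Methocel (10 ml/kg), 4 mice/dose. Mortality recorded at 7 days; LD₅₀ with fiducial limits by Weil's method.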

Series [2] deals with noradrenaline induced contraction of urethra. Description: Effects on urethral contractions (noradrenaline-induced) in anaesthetized dogs. Type of series: in vivo. The following applies: for ED50: Canis lupus familiaris, iv; for DBP/Urethra ratio: ratio between the active doses (selectivity index), * = non-selective: substantial effect on both urethra and DBP. An excerpt:
(§1) In order to monitor systemic blood pressure (BP), a PE catheter was introduced into the aortic arch through the right common carotid artery.
(§2) A collateral of the left femoral vein was cannulated for infusion of anaesthetic, and the right femoral vein was cannulated for administration of drugs. For intrarterial (i.a.) injection of noradrenaline (NA), a PE catheter was introduced into the lower portion of abdominal aorta via the right external iliac artery. Through such procedure, NA was selectively distributed to the lower urinary tract. Via a midline laparotomy, the urinary bladder and proximal urethra were exposed. In order to prevent the filling of the bladder, the two ureters were cannulated and the urine led outside. In order to record the prostatic urethral pressure, a Mikro-tip catheter (6 F) was introduced into the bladder via the external urethral meatus, and withdrawn until the pressure transducer was positioned in the prostatic urethra. A ligature was secured between the neck of the bladder and urethra to isolate the response of the latter and avoid any interaction with the bladder. Another ligature was put around the Mikro-tip catheter at the external urethral meatus, to secure the catheter itself. After a stabilizing period following surgical procedure (30 min), in which arterial and prostatic urethral pressure were continuously monitored as basal values, i.a. administration of NA was made at intervals of 10 min. The dose of NA chosen was such to produce an increase of at least 100% in urethral pressure. The test compounds were administered i.v. in a cumulative manner with intervals of 15-20 min between administrations. I.a. injections of NA were repeated approximately 5 min. after every dosing of test compound. Dose response curves were constructed computing the percentage inhibition to the increase in urethral pressure (NA induced), and the percentage drop in blood pressure produced by the test compound.

Another series deals with diastolic blood pressure. The series is described as follows: Effects on blood pressure in anaesthetized dogs. The following applies: Canis lupus familiaris, iv. Type of series: in vivo.
Text: as §1, §2

Another series has as its target T1, 5HT1A receptors (Rattus norvegicus, UniProt P19327).
T1 construct: Rat hippocampi were homogenized; from tissue; host or cells: rat hippocampus membranes
T1 sequence (P19327 1-422): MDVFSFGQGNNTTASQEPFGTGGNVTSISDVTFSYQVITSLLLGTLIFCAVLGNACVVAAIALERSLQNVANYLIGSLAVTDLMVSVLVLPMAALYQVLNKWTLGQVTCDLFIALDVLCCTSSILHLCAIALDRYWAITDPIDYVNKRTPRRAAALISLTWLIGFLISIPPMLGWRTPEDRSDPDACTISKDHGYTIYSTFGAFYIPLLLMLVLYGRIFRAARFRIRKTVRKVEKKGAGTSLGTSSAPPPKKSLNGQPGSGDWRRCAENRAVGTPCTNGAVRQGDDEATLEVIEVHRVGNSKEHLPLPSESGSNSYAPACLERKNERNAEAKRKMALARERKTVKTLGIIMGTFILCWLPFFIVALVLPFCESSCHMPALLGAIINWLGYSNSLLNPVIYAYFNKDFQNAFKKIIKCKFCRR
Description: [3H]8-OH-DPAT binding (5HT1A receptors), rat hippocampus membranes. The conditions noted are these: for IC50: rat hippocampus crude membranes, [3H]8-OH-DPAT 1.0 nM, 25°C 30 min, read-out: Receptor Binding IC50 (nM) 5-HT1a.

A further series has as its target α₁ receptors. The series is described as follows: [3H]prazosin binding (α1 receptors), rat cerebral cortex membranes. The conditions noted are these: for IC50: rat cerebral cortex crude membranes, [3H]prazosin 0.35 nM, 25°C 30 min, read-out: Receptor Binding IC50 (nM) α1.
The next series relates to rat bladder strips. The series is described as follows: K+-induced contractions of rat bladder strips. Type of series: cell-based. The conditions noted are these: 80 mM KCl, drug added 30 minutes before. The procedure: The whole bladder of the rat was removed and immediately placed in Krebs solution warmed at 37°C. […] Each strip was placed in a 10 ml organ bath and connected, under a constant load of 1 g, to an isometric strain gauge (DY-1 Basile, Comerio, Varese, Italy). […] After a 60 minutes equilibration period the strips were exposed to 80 mM KCl (final concentration). […] When the tonic contraction was stable, the strips were washed and 30 minutes later a new contraction was induced. After having recorded two or more reproducible responses, one concentration of the tested drugs was added to the bath and 30 minutes later a new contraction was induced. The experimental groups consisted of at least two preparations taken from different animals for each concentration of drug tested. The IC₅₀ values of inhibition of agonist-induced contractions were evaluated by linear regression analysis.

Where [3] appears, read: ip, female albino Swiss mice, intraperitoneal, mortality recorded 7 days after administration, read-out: Acute Toxicity in Mice LD50 (mg/kg) i.p.
Where [4] appears, read: female albino Swiss mice, oral, mortality recorded 7 days after administration, read-out: Acute Toxicity in Mice LD50 (mg/kg) p.o.
Where [5] appears, read: anaesthetized male beagle dogs, i.v. cumulative, active dose in inhibiting by 50% the noradrenaline induced contraction of urethra, read-out: Urethra ED50.
Setting [6] is: anaesthetized male beagle dogs, i.v. cumulative, active dose in lowering diastolic blood pressure by 25%, read-out: DBP ED25.
Where [7] appears, read: phasic contraction, read-out: K+ Stimulation of Rat Bladder IC50 (μM) Contractions Phasic.
[8] abbreviates: tonic contraction, read-out: K+ Stimulation of Rat Bladder IC50 (μM) Contractions Tonic.

Description for 5HT1A receptors: Rat hippocampi were homogenized in 50 volumes of original wet weight of ice-cold 50 mM Tris-HCl buffer pH 7.4. The homogenates were centrifuged at 48,000 x g for 10 minutes, and the pellets were resuspended in the same volume of ice-cold buffer, incubated for 10 minutes at 37°C, centrifuged and resuspended two more times. The final pellets obtained were resuspended in the same volume of buffer and incubated according to the conditions reported in the table below.
(§3) The incubations were terminated after the appropriate time (see table) by rapid filtration through Whatman GF/B filters using a Brandel cell harvester. The filters were washed twice with 15 ml of ice-cold buffer (see table). The radioactivity retained on the filters was determined by liquid scintillation counting. Nonspecific binding (which amounted generally to 10-30%) was evaluated by adding high concentrations of the specific displacers (see table). All the compounds were initially tested at 1x10⁻⁶ M concentration, and in the presence of significant displacing activity, a complete competition curve was generated (down to a concentration of 10⁻¹¹ M). All the samples were run in triplicate.
The competition curves were always analyzed (to evaluate the IC₅₀ values) by non linear curve fitting of the logistic equation according to the method reported by De Lean et al. (Am. J. Physiol., 235, E97, 1978), utilizing the ALLFIT program [publically available from the National Institutes of Health (N.I.H.) Bethesda, Maryland, USA] written for the IBM PC.
Description for α₁ receptors: Rat cerebral cortices were homogenized in 50 volumes of original wet weight of ice-cold 50 mM Tris-HCl buffer pH 7.4. The homogenates were centrifuged at 48,000 x g for 10 minutes, and the pellets were resuspended in the same volume of ice-cold buffer, centrifuged and resuspended two more times. The final pellets obtained were resuspended in the same volume of buffer and incubated according to the conditions reported in the table below.
as §3

In the case of `COc1ccccc1N1CCN(CCCCOc2cccc3c(=O)c(C)c(-c4ccccc4)oc23)CC1.Cl.Cl`, the LD50 at 168 h came out at 399 mg/kg in series [1] (ip, read-out: Acute Toxicity in Mice LD50 (mg/kg) i.p.) and 2240 mg/kg in series [1] (po, read-out: Acute Toxicity in Mice LD50 (mg/kg) p.o.). Besides, in series [2] (read-out: Urethra ED50 (µg/kg)), the ED50 came out at 57 µg/kg. Besides, in series [2], the DBP/Urethra ratio is recorded as 13.1. The ED25 with diastolic blood pressure (read-out: DBP ED25 (µg/kg)) came out at 745 µg/kg.
On to `COc1ccccc1N1CCN(CCCOC(=O)c2cccc3c(=O)c(C)c(-c4ccccc4)oc23)CC1.Cl.Cl` [Example 5, 8-{3-[4-(2-methoxyphenyl)-1-piperazinyl]-propoxycarbonyl}-3-methyl-4-oxo-2-phenyl-4H-1-benzopyran dihydrochloride], for which the IC50 at 5HT1A receptors stood at 19 nM; at α₁ receptors, 20 nM. Further, the LD50 at 168 h in series [1] (setting [3]) is 621 mg/kg; in series [1] (setting [4]), more than 3000 mg/kg. For the same compound, the ED50 in series [2] (setting [5]) was determined as 37 µg/kg. Further, the DBP/Urethra ratio in series [2] stood at 29.0. The ED25 in the series with diastolic blood pressure (setting [6]) stood at 1070 µg/kg.
With `COc1ccccc1N1CCN(CCCC(O)c2cccc3c(=O)c(C)c(-c4ccccc4)oc23)CC1.Cl.O` (stereo not shown) [Example 21, 8-{1-hydroxy-4-[4-(2-methoxyphenyl)-1-piperazinyl]-butyl}-3-methyl-4-oxo-2-phenyl-4H-1-benzopyran hydrochloride monohydrate], the values for the IC50 at 5HT1A receptors and at α₁ receptors were 33 nM and 17 nM, respectively. For the same compound, the LD50 at 168 h in series [1] (setting [3]) came to 297 mg/kg; in series [1] (setting [4]) it was 566 mg/kg. The ED50 in series [2] (read-out: Urethra ED50 (µg/kg)) was 6.6 µg/kg. Also, the DBP/Urethra ratio in series [2] came out at 19.2. Moreover, the ED25 in the series with diastolic blood pressure (read-out: DBP ED25 (µg/kg)) is 127 µg/kg.
On to `COc1ccccc1N1CCN(CCSCc2cccc3c(=O)c(C)c(-c4ccccc4)oc23)CC1.Cl` [Example 29, 8-{2-[4-(2-methoxyphenyl)-1-piperazinyl]-ethylthiomethyl}-3-methyl-4-oxo-2-phenyl-4H-1-benzopyran hydrochloride], for which the IC50 on 5HT1A receptors worked out at 45 nM; in the series with rat bladder strips (setting [7]), 10 µM; in the series with rat bladder strips (setting [8]), 10 µM; on α₁ receptors, 86 nM. The results for the LD50 at 168 h in series [1] (setting [3]) and in series [1] (setting [4]) were 730 mg/kg and more than 3000 mg/kg, respectively.
As for `COc1ccccc1N1CCN(CCNc2cccc3c(=O)c(C)c(-c4ccccc4)oc23)CC1.Cl.Cl` [Example 32, 8-{2-[4-(2-methoxyphenyl)-1-piperazinyl]-ethylamino}-3-methyl-4-oxo-2-phenyl-4H-1-benzopyran dihydrochloride], the IC50 was 46 nM on 5HT1A receptors, 10 µM with rat bladder strips (setting [7]), more than 10 µM with rat bladder strips (setting [8]) and 119 nM at α₁ receptors. Moreover, the LD50 at 168 h in series [1] (setting [3]) was 301 mg/kg; in series [1] (setting [4]) it was more than 2000 mg/kg.
In the case of `COc1ccccc1N1CCN(CCCNc2cccc3c(=O)c(C)c(-c4ccccc4)oc23)CC1` [Example 33, 8-{3-[4-(2-methoxyphenyl)-1-piperazinyl]-propylamino}-3-methyl-4-oxo-2-phenyl-4H-1-benzopyran hydrochloride 2.75-hydrate], the half-inhibitory concentration (IC50) was 38 nM on 5HT1A receptors, 10 µM in the series on rat bladder strips (setting [7]), 10 µM in the series on rat bladder strips (setting [8]) and 17 nM at α₁ receptors. Besides, the results for the LD50 at 168 h in series [1] (setting [3]) and in series [1] (setting [4]) were 399 mg/kg and more than 2000 mg/kg, respectively.
`COc1ccccc1N1CCN(CCCCNc2cccc3c(=O)c(C)c(-c4ccccc4)oc23)CC1` [Example 34, 8-{4-[4-(2-methoxyphenyl)-1-piperazinyl]-butylamino}-3-methyl-4-oxo-2-phenyl-4H-1-benzopyran hydrochloride hemihydrate]: the IC50 on 5HT1A receptors came to 34 nM; in the series with rat bladder strips (setting [7]) it was 2.8 µM; in the series on rat bladder strips (setting [8]) it was 3.6 µM; at α₁ receptors, 30 nM. Moreover, the LD50 at 168 h in series [1] (setting [3]) was more than 500 mg/kg.
Consider `COc1cccc(OC)c1OCCNCCOc1cccc2c(=O)c(C)c(-c3ccccc3)oc12.Cl` [Example 44, 8-{2-[2-(2,6-dimethoxyphenoxy)-ethylamino]-ethoxy}-3-methyl-4-oxo-2-phenyl-4H-1-benzopyran hydrochloride], for which the IC50 on 5HT1A receptors was 201 nM; in the series on rat bladder strips (setting [7]), 0.6 µM; in the series with rat bladder strips (setting [8]) it was 0.5 µM; on α₁ receptors, 685 nM. The LD50 at 168 h in series [1] (setting [3]) came to 84 mg/kg; in series [1] (setting [4]), 399 mg/kg.
As to `COc1ccccc1N1CCN(CC(O)COc2cccc3c(=O)c(C)c(-c4ccccc4)oc23)CC1.Cl` (stereo not shown) [Example 45, 8-{2-hydroxy-3-[4-(2-methoxyphenyl)-1-piperazinyl]-propoxy}-3-methyl-4-oxo-2-phenyl-4H-1-benzopyran hydrochloride], the IC50 came out at 106 nM at 5HT1A receptors and 15 nM on α₁ receptors. Moreover, the LD50 at 168 h was found to be 329 mg/kg in series [1] (setting [3]) and 1730 mg/kg in series [1] (setting [4]). Further, the ED50 in series [2] (setting [5]) worked out at 16.4 µg/kg. For the same compound, the DBP/Urethra ratio in series [2] was found to be 11.3. The ED25 with diastolic blood pressure (setting [6]) was found to be 186 µg/kg.
`Cc1c(-c2ccccc2)oc2c(C(=O)OCCN3CCCCC3)cccc2c1=O` [Flavoxate, 8-(2-piperidinoethoxycarbonyl)-3-methyl-4-oxo-2-phenyl-4H-1-benzopyran, reference compound]: the IC50 was more than 1000 nM on 5HT1A receptors, 13 µM with rat bladder strips (setting [7]), 13 µM with rat bladder strips (setting [8]) and more than 1000 nM on α₁ receptors. For the same compound, at 5HT1A receptors (statement in words), the “affinity for the 5HT1A-serotoninergic receptors” value is given as “practically devoid of affinity”. Moreover, the LD50 at 168 h in series [1] (setting [3]) is 385 mg/kg; in series [1] (setting [4]), 808 mg/kg. Besides, the “affinity for the α₁-adrenergic receptors” value in the series on α₁ receptors (statement in words) was “practically devoid of affinity”.
On to `COc1cc2nc(N3CCN(C(=O)c4ccco4)CC3)nc(N)c2cc1OC` [Prazosin, 1-(4-amino-6,7-dimethoxy-2-quinazonlinyl)-4-(2-furoyl)-piperazine, reference compound], for which the ED50 in series [2] (setting [5]) came to 3.6 µg/kg. Besides, in series [2], the DBP/Urethra ratio is 1.8*. The “selectivity for the mammalian lower urinary tract (antagonizing urethral contractions versus lowering blood pressure)” value in series [2] (statement in words) is listed as “do not exhibit such selectivity”. In addition, the ED25 with diastolic blood pressure (read-out: DBP ED25 (µg/kg)) was found to be 6.6 µg/kg.
As for `Cc1c(-c2ccccc2)oc2c(C(=O)OC(C)(C)CN3CCCCC3)cccc2c1=O.Cl` [Terflavoxate, 8-(1,1-dimethyl-2-piperidino-ethoxycarbonyl)-3-methyl-4-oxo-2-phenyl-4H-1-benzopyran hydrochloride, reference compound], the ED50 in series [2] (setting [5]) is more than 10000 µg/kg. The “effect on urethral contractions” value in series [2] (statement in words) is “no effect on urethral contractions”. For the same compound, the ED25 with diastolic blood pressure (setting [6]) is 6060 µg/kg.
